The values that follow come from paper PMC11191602, “A novel and selective fluorescent ligand for the study of adenosine A2B receptors” (Pharmacology Research & Perspectives, 2024).

One assay deals with A2BR. Also noted: method as in PMID 29106905, PMID 19569717. As to conditions: cited from earlier work.
In assay [1] the target is T1, endogenous A2BR in human monocyte‐derived M2‐like macrophages (Homo sapiens, UniProt P29275).
T1 construct: monitor endogenous A2BR expression on human macrophages; endogenous in cells; host or cells: M1-like (GMCSF) and M2-like (MCSF) macrophages differentiated from CD14+ monocytes of healthy human donors
T1 sequence (P29275 1-332): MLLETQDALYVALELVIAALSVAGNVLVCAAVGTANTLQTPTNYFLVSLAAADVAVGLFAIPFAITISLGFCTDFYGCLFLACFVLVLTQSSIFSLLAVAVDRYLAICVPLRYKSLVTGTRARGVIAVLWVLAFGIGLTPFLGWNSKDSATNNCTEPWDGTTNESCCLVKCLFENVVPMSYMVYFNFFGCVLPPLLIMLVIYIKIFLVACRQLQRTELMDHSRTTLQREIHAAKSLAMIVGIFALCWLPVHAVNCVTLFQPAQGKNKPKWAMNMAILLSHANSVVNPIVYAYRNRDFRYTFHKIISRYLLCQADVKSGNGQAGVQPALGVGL
The assay is described as follows: Flow cytometry of PSB603‐BY630 binding to M2‐like macrophages. The format is cell-based. The note with it: 100 nM PSB603‐BY630, 10 μM unlabelled PSB603, six donors, p <.01 paired t‐test. Here is the method: (§1) One hundred and fifty milliliter peripheral blood was obtained in heparinised 60 mL syringes by venepuncture from healthy volunteers after written informed consent (Ethics from University of Nottingham Ethics committee, ref 161–1711). Peripheral blood mononuclear cells (PBMC) were immediately separated by density centrifugation over Lymphoprep (Stemcell, UK) at 800g for 25 min on low brake followed by washes in endotoxin‐free phosphate‐buffered saline (PBS, Sigma). PBMC were washed in MACS buffer (PBS + 1% fetal calf serum (FCS, Sigma) + […] (Sigma)) then incubated with CD14 microbeads (Miltenyi Biotech) and monocytes isolated by magnetic separation on an AutoMACS Pro cell separator (Miltenyi). Cell purity was routinely assessed by flow cytometry (>95%). […]
(§2) Harvested macrophages were resuspended in staining buffer (HBSS [Sigma] supplemented with 2.5% v/v FCS and Ethylenediaminetetraacetic acid‐ EDTA 5 mM) at 2 × 10^6 cells/mL. […] BODIPY 630/650 fluorescence was measured on a MACSQuant 10 Flow Cytometer (Miltenyi) immediately after incubation (>5 × 10^4 events acquired). Flow cytometry data were analyzed using FlowJo software v10. […]
In general terms: A flow cytometer gives signals particle by particle.

The target in assay [2] is T2, endogenous A2BR in human monocyte‐derived M1‐like macrophages (Homo sapiens, UniProt P29275).
T2 construct: monitor endogenous A2BR expression on human macrophages; endogenous in cells; host or cells: M1-like (GMCSF) and M2-like (MCSF) macrophages differentiated from CD14+ monocytes of healthy human donors
T2 sequence (P29275 1-332): T1 sequence (P29275 1-332)
Description: Flow cytometry of PSB603‐BY630 binding to M1‐like macrophages. The format is cell-based. As to conditions: 100 nM PSB603‐BY630, 10 μM unlabelled PSB603, six donors, p <.01 paired t‐test. The procedure:
as §1, §2

The target of another assay is T3, NLuc‐A2BR (Homo sapiens, UniProt P29275).
T3 construct: expressed in transfected cells
T3 sequence (P29275 1-332): T1 sequence (P29275 1-332)
The assay is described as follows: NanoBRET competition binding against 50 nM PSB603‐BY630 in HEK293G cells expressing NLuc‐A2BR. Here is the method:
Saturation and competition binding assays were performed as previously described.[36] Briefly, cells were seeded in 96‐well white clear‐bottomed Greiner plates pre‐treated with 10 μg/mL poly‐D‐lysine (Sigma‐Aldrich, Missouri USA) at a density of 30 000–35 000 cells per well in DMEM supplemented with 10% FBS. […] The NanoLuc substrate, furimazine (Promega Corporation, Wisconsin, USA), was then added to each well (1:400 dilution) and the plate was incubated for 10 min in the dark at 37°C. The resulting bioluminescence resonance energy transfer (BRET) was measured using a PHERAstar FS plate reader (BMG Labtech) at 37°C. For each well, filtered light emissions at 460 nm (80 nm bandpass) and >610 nm (longpass) for the BODIPY630/650 ligand were simultaneously measured. BRET ratios were calculated by dividing the 610 nm emission by the 460 nm emission. All conditions were performed in 2–6 replicates within each plate. For kinetic experiments, cells were preincubated for 10 min with 1:400 dilution of furimazine prior to addition of 200 nM PSB603‐BY630 and BRET ratios determined every 0.5 min.
The IC 50 values were then used to calculate the K i values using the Cheng‐Prussoff equation: Ki=IC50/1+L/KD where [L] is the concentration of PSB603‐BY630 in nM, and K D is the dissociation constant of that fluorescent ligand in nM.

Regarding `CCCn1c(=O)[nH]c2nc(-c3ccc(S(=O)(=O)N4CCN(c5ccc(Cl)cc5)CC4)cc3)[nH]c2c1=O` [PSB603, 8‐[4‐[4‐(4‐Chlorophenzyl)piperazide‐1‐sulfonylphenyl]]‐1‐propylxanthine], in the assay on A2BR, the “affinity for A2BR” value is recorded as “sub‐nanomolar”. In addition, the “inhibition of PSB603‐BY630 binding (median fluorescence intensity)” value in assay [1] is “significant inhibiton”. Further, the “inhibition of PSB603‐BY630 binding (median fluorescence intensity)” value in assay [2] is listed as “significant inhibiton”. Moreover, on NLuc‐A2BR, the “Appararent Log K i” value is listed as −9.12 ± 0.08 and the “Log IC50” value is recorded as −8.55 ± 0.08.
